{
  "source": "patent US11000601B2",
  "about": "“Conjugated biological molecules, pharmaceutical compositions and methods” (OBI Pharma, Inc., priority 2016, dated 2021)",
  "system": "NCI-H526 (ATCC CRL-5811) variant small cell lung cancer cells",
  "experiment": "Xenograft tumor model of human small cell lung cancer NCI-H526 in female nu/nu mice: tumor volume, T/C, TGI",
  "type": "in vivo",
  "conditions": "for Tumor Volume (mm^3), individual animal: animals No. 1-8; for Tumor Volume (mm^3), individual animal / Tumor Volume (mm^3), Mean: once weekly x 4 (10 mg/kg IV; MMAE 0.191 mg/kg IP); for Tumor Volume (mm^3), Mean: group mean; for % T/C: treatment/control x 100%, <=42% considered significant; for % TGI: vs vehicle control",
  "experimental": "In a xenograft tumor model of human small cell lung cancer, viable NCI-H526 stage E carcinoma; variant small cell lung cancer cells (ATCC CRL-5811), were subcutaneously (SC) implanted (1×10^6 cells with matrigel (1:0.8) in 0.2 mL/mouse) into the right flank of female nu/nu mice. Tumor implanted mice were divided into five treatment groups, each group containing eight animals, and test agent administrations were initiated one day after cell implantation (denoted as Day 1).\nThe NCI-H526 tumor cell line was purchased from American Type Culture Collection (ATCC CRL-5811, variant small cell lung carcinoma) and cultured in Eurofins Panlabs Taiwan, Ltd. The cells were cultured in RPMI-1640 medium containing 10% fetal bovine serum (FBS) at 37° C. in 5% CO2 incubator and implanted subcutaneously in the right flank of each mouse.\nFemale nu/nu nude, aged 6-7 weeks, were obtained from BioLasco Taiwan (under Charles River Laboratories Licensee) and used. The animals were housed in individually ventilated cages (IVC, 36 Mini Isolator system). The allocation for 5 animals was 27×20×14 in cm. All animals were maintained in a hygienic environment under controlled temperature (20-24° C.) and humidity (30-70%) with 12-hour light/dark cycle. Free access to standard lab diet [MFG (Oriental Yeast Co., Ltd., Japan)] and autoclaved tap water were granted. All aspects of this work including housing, experimentation, and animal disposal were performed in general accordance with the “Guide for the Care and Use of Laboratory Animals: Eighth Edition” (National Academies Press, Washington, D.C., 2011) in our AAALAC-accredited laboratory animal facility. In addition, the animal care and use protocol was reviewed and approved by the IACUC at Eurofins Panlabs Taiwan, Ltd.\nThe tumor volumes, body weights, mortality, and signs of overt toxicity were monitored and recorded twice weekly for 45 days. Tumor growth inhibition was calculated as T/C (treatment/control)×100%. A T/C value≤42% compared to that of the vehicle control group was considered significant anti-tumor activity. Two-way ANOVA followed by Bonferroni test was used to ascertain the statistically significant significance of groups compared to respective vehicle control (*p<0.05).",
  "note": "Several values for one entry are separate records, joined by “and”; a condition that tells them apart may be missing. Equal entries are not always repeated. Marks after values point to notes of the source that are not given here. Square brackets hold non-standard residues; d marks the D form. Peptide text beside a SMILES is read from it. * marks the point of attachment. Dolaproine = CO[C@@H]([C@@H]1CCCN1)[C@@H](C)C(=O)O; Dil = CC[C@H](C)[C@H](NC)[C@@H](CC(=O)O)OC; X1 = C[C@@H](N*)[C@@H](O)c1ccccc1; NMeV = CN[C@H](C(=O)O)C(C)C",
  "data": [
    {"smiles": "CC[C@H](C)[C@@H]([C@@H](CC(=O)N1CCC[C@H]1[C@H](OC)[C@@H](C)C(=O)N[C@H](C)[C@@H](O)c1ccccc1)OC)N(C)C(=O)[C@@H](NC(=O)[C@@H](NC)C(C)C)C(C)C", "note": "[MMAE, monomethyl auristatin E] (H-[NMeV]V[Dil][Dolaproine]-X1)", "values": [
      {"measurement": "maximum percent TGI", "setting": "0.191 mg/kg IP weekly, Day 18", "result": 55, "unit": "%"},
      {"measurement": "anti-tumor activity (in words)", "setting": "0.191 mg/kg IP weekly, over the course of the study", "result": "moderate anti-tumor activity"},
      {"measurement": "Tumor Volume (mm^3), individual animal", "setting": "Day 1", "result": "75 mm^3 and 108 mm^3 and 81 mm^3 and 83 mm^3 and 99 mm^3 and 60 mm^3 and 68 mm^3 and 91 mm^3"},
      {"measurement": "Tumor Volume (mm^3), Mean", "setting": "Day 1", "result": 83, "unit": "mm^3"},
      {"measurement": "% T/C", "setting": "Day 1", "result": 108, "unit": "%"},
      {"measurement": "Tumor Volume (mm^3), individual animal", "setting": "Day 4", "result": "80 mm^3 (2×) and 127 mm^3 and 101 mm^3 and 88 mm^3 and 115 mm^3 and 85 mm^3 and 108 mm^3"},
      {"measurement": "Tumor Volume (mm^3), Mean", "setting": "Day 4", "result": 98, "unit": "mm^3"},
      {"measurement": "% T/C", "setting": "Day 4", "result": 120, "unit": "%"},
      {"measurement": "% TGI", "setting": "Day 4", "result": "−20", "unit": "%"},
      {"measurement": "Tumor Volume (mm^3), individual animal", "setting": "Day 8", "result": "94 mm^3 (2×) and 74 mm^3 (2×) and 83 mm^3 and 70 mm^3 and 82 mm^3 and 121 mm^3"},
      {"measurement": "Tumor Volume (mm^3), Mean", "setting": "Day 8", "result": 87, "unit": "mm^3"},
      {"measurement": "% T/C", "setting": "Day 8", "result": 97, "unit": "%"},
      {"measurement": "% TGI", "setting": "Day 8", "result": 3, "unit": "%"},
      {"measurement": "Tumor Volume (mm^3), individual animal", "setting": "Day 11", "result": "74 mm^3 and 86 mm^3 and 89 mm^3 and 104 mm^3 and 121 mm^3 and 67 mm^3 and 77 mm^3 and 79 mm^3"},
      {"measurement": "Tumor Volume (mm^3), Mean", "setting": "Day 11", "result": 87, "unit": "mm^3"},
      {"measurement": "% T/C", "setting": "Day 11", "result": 68, "unit": "%"},
      {"measurement": "% TGI", "setting": "Day 11", "result": 32, "unit": "%"},
      {"measurement": "Tumor Volume (mm^3), individual animal", "setting": "Day 15", "result": "82 mm^3 and 133 mm^3 and 137 mm^3 and 101 mm^3 and 144 mm^3 and 89 mm^3 and 172 mm^3 and 123 mm^3"},
      {"measurement": "Tumor Volume (mm^3), Mean", "setting": "Day 15", "result": 123, "unit": "mm^3"},
      {"measurement": "% T/C", "setting": "Day 15", "result": 71, "unit": "%"},
      {"measurement": "% TGI", "setting": "Day 15", "result": 29, "unit": "%"},
      {"measurement": "Tumor Volume (mm^3), individual animal", "setting": "Day 18", "result": "80 mm^3 and 199 mm^3 and 246 mm^3 and 169 mm^3 and 187 mm^3 and 101 mm^3 and 281 mm^3 and 202 mm^3"},
      {"measurement": "Tumor Volume (mm^3), Mean", "setting": "Day 18", "result": 183, "unit": "mm^3"},
      {"measurement": "% T/C", "setting": "Day 18", "result": 45, "unit": "%"},
      {"measurement": "% TGI", "setting": "Day 18", "result": 55, "unit": "%"},
      {"measurement": "Tumor Volume (mm^3), individual animal", "setting": "Day 22", "result": "74 mm^3 and 618 mm^3 and 530 mm^3 and 337 mm^3 and 317 mm^3 and 152 mm^3 and 621 mm^3 and 401 mm^3"},
      {"measurement": "Tumor Volume (mm^3), Mean", "setting": "Day 22", "result": 381, "unit": "mm^3"},
      {"measurement": "% T/C", "setting": "Day 22", "result": 52, "unit": "%"},
      {"measurement": "% TGI", "setting": "Day 22", "result": 48, "unit": "%"},
      {"measurement": "Tumor Volume (mm^3), individual animal", "setting": "Day 25", "result": "70 mm^3 and 1163 mm^3 and 1095 mm^3 and 483 mm^3 and 525 mm^3 and 249 mm^3 and 1078 mm^3 and 535 mm^3"},
      {"measurement": "Tumor Volume (mm^3), Mean", "setting": "Day 25", "result": "650* mm^3"},
      {"measurement": "% T/C", "setting": "Day 25", "result": 58, "unit": "%"},
      {"measurement": "% TGI", "setting": "Day 25", "result": 42, "unit": "%"},
      {"measurement": "Tumor Volume (mm^3), individual animal", "setting": "Day 29", "result": "90 mm^3 and 1756 mm^3 and 1410 mm^3 and 853 mm^3 and 522 mm^3 and 431 mm^3 and 1313 mm^3 and 845 mm^3"},
      {"measurement": "Tumor Volume (mm^3), Mean", "setting": "Day 29", "result": "903* mm^3"},
      {"measurement": "% T/C", "setting": "Day 29", "result": 48, "unit": "%"},
      {"measurement": "% TGI", "setting": "Day 29", "result": 52, "unit": "%"},
      {"measurement": "Tumor Volume (mm^3), individual animal", "setting": "Day 31", "result": "173 mm^3 and 1901 mm^3 and 1682 mm^3 and 1172 mm^3 and 657 mm^3 and 550 mm^3 and 1595 mm^3 and 1044 mm^3"},
      {"measurement": "Tumor Volume (mm^3), Mean", "setting": "Day 31", "result": "1097* mm^3"},
      {"measurement": "% T/C", "setting": "Day 31", "result": 48, "unit": "%"},
      {"measurement": "% TGI", "setting": "Day 31", "result": 52, "unit": "%"},
      {"measurement": "Tumor Volume (mm^3), individual animal", "setting": "Day 36", "result": "126 mm^3 and 3047 mm^3 and 2480 mm^3 and 2090 mm^3 and 759 mm^3 and 1032 mm^3 and 2538 mm^3 and 1318 mm^3"},
      {"measurement": "Tumor Volume (mm^3), Mean", "setting": "Day 36", "result": 1674, "unit": "mm^3"},
      {"measurement": "Tumor Volume (mm^3), individual animal", "setting": "Day 39", "result": "56 mm^3 and 4380 mm^3 and 2713 mm^3 and 2836 mm^3 and 841 mm^3 and 1304 mm^3 and 3040 mm^3 and 1339 mm^3"},
      {"measurement": "Tumor Volume (mm^3), Mean", "setting": "Day 39", "result": 2064, "unit": "mm^3"}
    ]}
  ]
}
